# Test results as given in US20250101041A1, “POSITIVE ALLOSTERIC MODULATORS OF THE MUSCARINIC ACETYLCHOLINE RECEPTOR M4” (Vanderbilt University, priority 2022, published 2025).
# Biological target: T1, human mAChR M4 (Homo sapiens, UniProt P08173)
# T1 construct: expressed in transfected cells; host or cells: CHO-K1 (American Type Culture Collection), stably expressing hM4 and Gqi5
# T1 sequence (P08173 1-479): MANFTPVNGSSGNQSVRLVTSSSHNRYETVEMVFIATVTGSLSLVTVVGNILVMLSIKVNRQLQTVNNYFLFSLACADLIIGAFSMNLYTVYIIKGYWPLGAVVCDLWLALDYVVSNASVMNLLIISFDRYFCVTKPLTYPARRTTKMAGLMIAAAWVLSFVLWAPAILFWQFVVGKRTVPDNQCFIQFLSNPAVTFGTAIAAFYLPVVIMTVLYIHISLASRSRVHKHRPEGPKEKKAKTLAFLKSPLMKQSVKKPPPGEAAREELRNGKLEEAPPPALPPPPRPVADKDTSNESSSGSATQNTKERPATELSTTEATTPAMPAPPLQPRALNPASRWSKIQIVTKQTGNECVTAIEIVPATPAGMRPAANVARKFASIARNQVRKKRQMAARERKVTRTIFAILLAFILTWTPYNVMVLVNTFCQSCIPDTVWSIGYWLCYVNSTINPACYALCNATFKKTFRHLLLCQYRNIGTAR
# Assay: mAChR M4 cell-based functional assay: calcium mobilization (Fluo-4, FDSS), potentiation of EC20 acetylcholine response in hM4-Gqi5 CHO-K1 cells
# Details: human M4; for Emax at 30 µM: CHO-K1, % ACh maximum at 30 μM; for EC50: potentiation of EC20 acetylcholine response, calcium mobilization
# Outline: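 Readout is the fluorescence-ratio rise at 1 Hz on FDSS, with PAM activity taken as concentration-dependent enhancement of the EC20 acetylcholine response, fitted four-parameter for EC50/Emax. hM4-Gqi5 CHO-K1 cells carried Fluo-4 AM dye; test compounds (11 points, 1:3) preceded EC20 acetylcholine additions at 144 s and 230 s.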
Emax at 30 µM [%],EC50 [nM],Structure (SMILES)
75,95,"Cc1c(N2CCc3ncc(C4CCCCC4)cc3C2)nn2c(=O)ccnc2c1C [Compound 1-430, 7-(3-cyclohexyl-7,8-dihydro-1,6-naphthyridin-6(5H)-yl)-8,9-dimethyl-4H-pyrimido[1,2-b] pyridazin-4-one]"
61,259,"Cc1cc(C)c(-c2cnc3c(c2)CN(c2nn4c(=O)ccnc4cc2C)CC3)cn1 [Compound 1-405, 7-(3-(4,6-dimethylpyridin-3-yl)-7,8-dihydro-1,6-naphthyridin-6(5H)-yl)-8-methyl-4H-pyrimido [1,2-b]pyridazin-4-one]"
88,331,"Cc1ccc(-c2cnc3c(c2)CN(c2nn4c(=O)cc(C)nc4cc2C)CC3)cc1 [Compound 1-293, 2,8-dimethyl-7-(3-(p-tolyl)-7,8-dihydro-1,6-naphthyridin-6(5H)-yl)-4H-pyrimido[1,2-b]pyridazin-4-one]"
53,371,"Cc1c(N2CCc3ncc(-c4cnccc4C(F)(F)F)cc3C2)nn2c(=O)ccnc2c1C [Compound 1-142, 8,9-dimethyl-7-(3-(4-(trifluoromethyl)pyridin-3-yl)-7,8-dihydro-naphthyridin-6(5H)-yl)-4H-pyrimido[1,2-b]pyridazin-4-one]"
93,587,"Cc1cc(Nc2cnc3c(c2)CN(c2nn4c(=O)ccnc4cc2C)CC3)cnc1Cl [Compound 2-132, 7-(3-((6-chloro-5-methylpyridin-3-yl)amino)-7,8-dihydro-1,6-naphthyridin-6(5H)-yl)-8-methyl-4H-pyrimido[1,2-b]pyridazin-4-one]"
75,174,"Cc1cc(=O)n2nc(N3CCc4ncc(-c5ccc(C6CC6)nc5)cc4C3)c(C)cc2n1 [Compound 1-72, 7-(3-(6-cyclopropylpyridin-3-yl)-7,8-dihydro-1,6-naphthyridin-6(5H)-yl)-2,8-dimethyl-4H-pyrimido[1,2-b]pyridazin-4-one]"
93,19,"Cc1c(N2CCc3ncc(-c4cnccn4)cc3C2)nn2c(=O)cc(C(F)F)nc2c1C [Compound 1-116, 2-(difluoromethyl)-8,9-dimethyl-7-(3-(pyrazin-2-yl)-7,8-dihydro-1,6-naphthyridin-6(5H)-yl)-4H-pyrimido[1,2-b]pyridazin-4-one]"
45,3900,"Cc1cc2nccc(=O)n2nc1N1CCc2ncc(-c3ccccc3C3(C#N)CC3)cc2C1 [Compound 1-438, 1-(2-(6-(8-methyl-4-oxo-4H-pyrimido[1,2-b]pyridazin-7-yl)-5,6,7,8-tetrahydro-1,6-naphthyridin-3-yl)phenyl)cyclopropane-1-carbonitrile]"
58,–,"Cc1cc2nccc(=O)n2nc1N1CCc2ncc(Nc3ccc(C4CC4)nc3)cc2C1 [Compound 2-125, 7-(3-((6-cyclopropylpyridin-3-yl)amino)-7,8-dihydro-1,6-naphthyridin-6(5H)-yl)-8-methyl-4H-pyrimido[1,2-b]pyridazin-4-one]"
89,797,"Cc1cc2nccc(=O)n2nc1N1CCc2ncc(-c3c(C)noc3C)cc2C1 [Compound 1-416, 7-(3-(3,5-dimethylisoxazol-4-yl)-7,8-dihydro-1,6-naphthyridin-6(5H)-yl)-8-methyl-4H-pyrimido[1,2-b]pyridazin-4-one]"
97,203,"Cc1c(N2CCc3ncc(-c4ccnn4C)cc3C2)nn2c(=O)ccnc2c1C [Compound 1-63, 8,9-dimethyl-7-(3-(1-methyl-1H-pyrazol-5-yl)-7,8-dihydro-1,6-naphthyridin-6(5H)-yl)-4H-pyrimido[1,2-b]pyridazin-4-one]"
88,22,"Cc1cc2nc(C(F)F)cc(=O)n2nc1N1CCc2ncc(N3CCCn4nccc43)cc2C1 [Compound 2-14, 2-(difluoromethyl)-7-(3-(6,7-dihydropyrazolo[1,5-a]pyrimidin-4(5H)-yl)-7,8-dihydro-1,6-naphthyridin-6(5H)-yl)-8-methyl-4H-pyrimido[1,2-b]pyridazin-4-one]"
70,231,"Cc1c(N2CCc3ncc(-c4ccc(N(C)C)nc4)cc3C2)nn2c(=O)ccnc2c1C [Compound 1-89, 7-(3-(6-(dimethylamino)pyridin-3-yl)-7,8-dihydro-1,6-naphthyridin-6(5H)-yl)-8,9-dimethyl-4H-pyrimido[1,2-b]pyridazin-4-one]"
83,898,"Cc1cc2nccc(=O)n2nc1N1CCc2ncc(Cc3cccnc3)cc2C1 [Compound 1-378, 8-methyl-7-(3-(pyridin-3-ylmethyl)-7,8-dihydro-1,6-naphthyridin-6(5H)-yl)-4H-pyrimido[1,2-b]pyridazin-4-one]"
76,479,"Cc1cc2nccc(=O)n2nc1N1CCc2ncc(-c3ccnc(C4CC4)c3)cc2C1 [Compound 1-54, 7-(3-(2-cyclopropylpyridin-4-yl)-7,8-dihydro-1,6-naphthyridin-6(5H)-yl)-8-methyl-4H-pyrimido[1,2-b]pyridazin-4-one]"
82,356,"Cc1cc(=O)n2nc(N3CCc4ncc(-c5cnn(CC(F)(F)F)c5)cc4C3)c(C)cc2n1 [Compound 1-291, 2,8-dimethyl-7-(3-(1-(2,2,2-trifluoroethyl)-1H-pyrazol-4-yl)-7,8-dihydro-1,6-naphthyridin-6(5H)-yl)-4H-pyrimido[1,2-b]pyridazin-4-one]"
55,426,"Cc1ccc(-c2cnc3c(c2)CN(c2nn4c(=O)ccnc4cc2C)CC3)nc1 [Compound 1-351, 8-methyl-7-(3-(5-methylpyridin-2-yl)-7,8-dihydro-1,6-naphthyridin-6(5H)-yl)-4H-pyrimido[1,2-b]pyridazin-4-one]"
83,1030,"COCc1cc(=O)n2nc(N3CCc4ncc(-c5cnccc5OC)cc4C3)c(C)cc2n1 [Compound 1-384, 2-(methoxymethyl)-7-(3-(4-methoxypyridin-3-yl)-7,8-dihydro-1,6-naphthyridin-6(5H)-yl)-8-methyl-4H-pyrimido [1,2-b]pyridazin-4-one]"
87,501,"Cc1cc2nccc(=O)n2nc1N1CCc2ncc(-c3cn(C)nc3C)cc2C1 [Compound 1-2, 7-(3-(1,3-dimethyl-1H-pyrazol-4-yl)-7,8-dihydro-1,6-naphthyridin-6(5H)-yl)-8-methyl-4H-pyrimido[1,2-b]pyridazin-4-one]"
95,33,"COCc1c(N2CCc3ncc(C(F)(F)F)cc3C2)nn2c(=O)ccnc2c1C [Compound 1-270, 8-(methoxymethyl)-9-methyl-7-(3-(trifluoromethyl)-7,8-dihydro-1,6-naphthyridin-6(5H)-yl)-4H-pyrimido[1,2-b]pyridazin-4-one]"
92,1110,"Cc1cc2nc(C(=O)N3CC4(COC4)C3)cc(=O)n2nc1N1CCc2ncc(C(F)(F)F)cc2C1 [Compound 1-44, 8-methyl-2-(2-oxa-6-azaspiro[3.3]heptane-6-carbonyl)-7-(3-(trifluoromethyl)-7,8-dihydro-1,6-naphthyridin-6(5H)-yl)-4H-pyrimido[1,2-b]pyridazin-4-one]"
75,25,"Cc1cc2ncc(Cl)c(=O)n2nc1N1CCc2ncc(C3CC3)cc2C1 [Compound 1-9, 3-chloro-7-(3-cyclopropyl-7,8-dihydro-1,6-naphthyridin-6(5H)-yl)-8-methyl-4H-pyrimido[1,2-b]pyridazin-4-one]"
106,325,"COCc1cc(=O)n2nc(N3Cc4cc(C(F)(F)F)cnc4C(C)C3)c(C)c(C)c2n1 (single isomer, unassigned) [Compound 1-376]"
83,104,"Cc1cc(=O)n2nc(N3CCc4ncc(-c5cnc(C)s5)cc4C3)c(C)cc2n1 [Compound 1-31, 2,8-dimethyl-7-(3-(2-methylthiazol-5-yl)-7,8-dihydro-1,6-naphthyridin-6(5H)-yl)-4H-pyrimido[1,2-b]pyridazin-4-one]"
90,41,"Cc1cc2nccc(=O)n2nc1N1CCc2ncc(Nc3c(F)cncc3F)cc2C1 [Compound 2-154, 7-(3-((3,5-difluoropyridin-4-yl)amino)-7,8-dihydro-1,6-naphthyridin-6(5H)-yl)-8-methyl-4H-pyrimido[1,2-b]pyridazin-4-one]"
76,339,"Cc1c(N2CCc3ncc(-c4ccc(N(C)C)nc4)cc3C2)nn2c(=O)cc(C(F)F)nc2c1C [Compound 1-92, 2-(difluoromethyl)-7-(3-(6-(dimethylamino)pyridin-3-yl)-7,8-dihydro-1,6-naphthyridin-6(5H)-yl)-8,9-dimethyl-4H-pyrimido[1,2-b]pyridazin-4-one]"
85,188,"Cc1cc(=O)n2nc(N3CCc4ncc(-c5ccc(C)o5)cc4C3)c(C)cc2n1 [Compound 1-302, 2,8-dimethyl-7-(3-(5-methylfuran-2-yl)-7,8-dihydro-1,6-naphthyridin-6(5H)-yl)-4H-pyrimido[1,2-b] pyridazin-4-one]"
